# Measured values from patent US8324265B2, “Heterocyclic compounds having type I 11β hydroxysteroid dehydrogenase inhibitory activity” (Shionogi & Co., Ltd., priority 2005, dated 2012).
# pIC50: −log10 of the molar value.
# Columns and labels:
# [1] = target: recombinant human 11β-HSD1 (Homo sapiens, UniProt P28845); assay: Enzyme activity assay on human 11β-HSD1 (HTRF); assay type: biochemical; settings: recombinant human 11β-HSD1, 5μM cortisone as substrate, 2 hours at 37° C.; read-out: humanIC50
# Chain of recombinant human 11β-HSD1 (P28845 whole entry): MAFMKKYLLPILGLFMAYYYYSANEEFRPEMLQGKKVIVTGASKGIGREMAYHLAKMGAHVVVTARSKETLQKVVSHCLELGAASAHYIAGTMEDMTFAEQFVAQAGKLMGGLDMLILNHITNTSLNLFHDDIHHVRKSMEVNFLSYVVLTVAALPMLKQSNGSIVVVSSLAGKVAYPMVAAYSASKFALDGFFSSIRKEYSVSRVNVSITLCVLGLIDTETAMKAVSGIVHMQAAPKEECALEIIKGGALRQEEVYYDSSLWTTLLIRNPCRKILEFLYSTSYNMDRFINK
# Description: Evaluation of 11β-HSD1 Inhibitors (Enzyme Activity Assay on Human 11β-HSD1)
# Enzymatic activity for human 11β-HSD1 was determined in a 10 μl final volume of assay mixture containing 50 mM sodium phosphate buffer (pH 7.6), 1 mg/ml bovine serum albumin, 0.42 mg/ml NADPH, 1.26 mg/ml glucose-6-phosphate, glucose-6-phosphate dehydrogenase, test compound, recombinant human 11β-HSD1, and 5μM cortisone as substrate. The reaction was started with the addition of cortisone. After incubation for 2 hours at 37° C., 5μl of europium cryptate-labelled anti-cortisol antibody and 5μl of XL665-labeled cortisol were added. After further incubation for 2 hours at room temperature, the homogeneous time-resolved fluorescence (HTRF) signal was measured. The cortisol production was quantitated by a standard curve generated with several known concentrations of cortisol in each assay.
# (§1) The amount of cortisol production without compounds was served as control, and the percent inhibition by test compound at each concentration was calculated. The IC50 value of the compound for 11β-HSD1 was obtained using the inhibition curve generated by plotting the percent inhibition versus the concentration of test compound.
# [2] = target: recombinant mouse 11β-HSD1 (Mus musculus, UniProt P50172); assay: Enzyme activity assay on mouse 11β-HSD1 (HTRF); assay type: biochemical; settings: recombinant mouse 11β-HSD1, 2μM 11-dehydrocorticosterone as substrate, 2 hours at 37° C.; read-out: mouseIC50
# Chain of recombinant mouse 11β-HSD1 (P50172 whole entry): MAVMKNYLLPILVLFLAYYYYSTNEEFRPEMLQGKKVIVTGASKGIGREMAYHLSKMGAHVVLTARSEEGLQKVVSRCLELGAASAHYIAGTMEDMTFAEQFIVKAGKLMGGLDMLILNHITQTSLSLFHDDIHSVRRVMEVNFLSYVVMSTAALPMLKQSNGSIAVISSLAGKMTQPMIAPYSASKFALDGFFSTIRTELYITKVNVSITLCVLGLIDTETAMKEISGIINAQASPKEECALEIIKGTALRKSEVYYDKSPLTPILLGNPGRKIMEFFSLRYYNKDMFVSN
# Description: Evaluation of 11β-HSD1 Inhibitors (Enzyme Activity Assay on Mouse 11β-HSD1)
# Enzymatic activity for mouse 11β-HSD1 activity was determined in a 10μl final volume of assay mixture containing 50 mM sodium phosphate buffer (pH 7.6), 1 mg/ml bovine serum albumin, 0.42 mg/ml NADPH, 1.26 mg/ml glucose-6-phosphate, glucose-6-phosphate dehydrogenase, test compound, recombinant mouse 11β-HSD1, and 2μM 11-dehydrocorticosterone as substrate. The reaction was started with the addition of 11-dehydrocorticosterone. After incubation for 2 hours at 37° C., 5μl of europium cryptate-labelled anti-cortisol antibody and 5μl of XL665-labeled cortisol were added. After further incubation for 2 hours at room temperature, the HTRF signal was measured. The corticosterone production was quantitated by a standard curve generated with several known concentrations of corticosterone in each assay.
# as §1, with “corticosterone” for “cortisol”, “by” for “by test”
Structure (SMILES),melting point,pIC50 [1],pIC50 [2]
Cn1ncc(C(=O)NC2C3CC4CC(C3)CC2C4)c1OCCc1ccsc1 (centres unmarked) [Compound A-64],68 to 69 °C,,
Cn1ncc(C(=O)NC2C3CC4CC(C3)CC2C4)c1OCc1ccccc1 (centres unmarked) [Compound A-4],,7.43,5.80
Cn1ncc(C(=O)NC2C3CC4CC(C3)CC2C4)c1OCC1CCC1 (centres unmarked) [Compound A-63],84 to 85 °C,,
Cn1ncc(C(=O)NC23CC4CC(CC(C4)C2)C3)c1Sc1ccccc1 [Compound A-2],,6.57,4.96
CCC(CC)COc1c(C(=O)NC2C3CC4CC(C3)CC2C4)cnn1C (centres unmarked) [Compound A-65],89 to 90 °C,,
Cn1cc(C(=O)NC2C3CC4CC(C3)CC2C4)c(OCc2ccccc2)n1 (centres unmarked) [Compound A-5],,6.15,< 4.52
Cn1ncc(C(=O)NC2C3CC4CC(C3)CC2C4)c1OC1CCCCC1 (centres unmarked) [Compound A-6],,8.08,6.03
Cn1ncc(C(=O)NC23CC4CC(CC(C4)C2)C3)c1OCc1ccccc1 [Compound A-1],,6.72,5.23
Cn1ncc(C(=O)NC2C3CC4CC(C3)CC2C4)c1OCCc1ccccc1 (centres unmarked) [Compound A-7],,7.74,6.15
Cn1ncc(C(=O)NC23CC4CC(CC(C4)C2)C3)c1Oc1ccccc1 [Compound A-3],,6.52,4.62
